In patent US20240398812A1 (Caraway Therapeutics, Inc., priority 2021, published 2024):

How the values were obtained:
Format in all cases: cell-based
human TRPML1 = human TRPML1 (Homo sapiens, UniProt Q9GZU1); assay: Fluorescent TRPML1 assay (Fluo4-AM calcium fluorescence, HEK-293 Trex cells)
Outline: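 Tet-inducible HEK-293 Trex cells stably expressing surface-targeted mutant human TRPML1, induced with 0.5 ug/mL doxycycline overnight, loaded with Fluo4-AM and suspended in Ringer's with 10 mM calcium. Compounds tested from 20 μM to 6 nM final, half-log steps, in triplicate; fluorescence (ex 480/em 540) normalised to plate controls, EC50 by non-linear regression.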

TRPML2 = biological target: T1, TRPML2 (Homo sapiens, UniProt Q8IZK6); assay: Fluorescent TRPML2 assay (as for TRPML1)
T1 construct: expressed in transfected cells
T1 sequence (Q8IZK6 1-566): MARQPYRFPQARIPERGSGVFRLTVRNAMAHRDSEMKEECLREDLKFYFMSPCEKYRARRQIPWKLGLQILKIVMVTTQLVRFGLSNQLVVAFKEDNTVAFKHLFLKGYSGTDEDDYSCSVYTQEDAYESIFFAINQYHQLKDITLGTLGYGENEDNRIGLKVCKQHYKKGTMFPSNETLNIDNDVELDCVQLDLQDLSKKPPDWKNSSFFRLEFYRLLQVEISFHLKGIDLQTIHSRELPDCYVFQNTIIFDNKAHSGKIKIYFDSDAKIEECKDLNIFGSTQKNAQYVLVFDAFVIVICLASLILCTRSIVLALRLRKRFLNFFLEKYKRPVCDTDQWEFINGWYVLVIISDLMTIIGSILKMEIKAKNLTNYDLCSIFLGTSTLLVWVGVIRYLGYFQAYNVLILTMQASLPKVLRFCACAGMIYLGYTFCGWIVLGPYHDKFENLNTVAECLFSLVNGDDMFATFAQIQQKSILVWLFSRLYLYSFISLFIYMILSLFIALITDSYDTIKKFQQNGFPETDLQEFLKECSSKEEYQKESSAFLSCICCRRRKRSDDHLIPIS
Method: HEK-293 Trex cells were stably transfected with a construct consisting of the human coding sequence for TRPML1 cloned into the tet-inducible plasmid pCDNA5 T/O. Mutations were introduced into the TRPML1 sequence to facilitate expression on the cell surface (Silvia Vergarajauregui, Rosa Puertollano Traffic. 2006 March; 7 (3): 337-353). Briefly, the cells are cultured in 150 mm round tissue culture dishes containing 20 mL of media. The day before the assay the cells are rinsed with DPBS —Ca—Mg and then treated briefly with Trypsin-EDTA. The Trypsin-EDTA is diluted with growth media, and cells are counted. 38×10^6 cells are re-plated into 150 mm round tissue culture dishes in media containing 0.5 ug/mL doxycycline to induce expression of hTRPML1.
The day of the experiment cells are lifted from the plates as above and collected by centrifugation. The cells are then suspended in dye loading buffer consisting of Ringer's solution supplemented with 0.1% Pluronic Acid and 1 micromolar Fluo4-AM dye. Cells are loaded for ˜60 minutes in the dark with occasional mixing. The cells are collected by centrifugation, the loading media aspirated, and the cells resuspended in 25 mL Ringer's solution and incubated ˜60 minutes in the dark. The cells are again collected by centrifugation, rinsed in Ringer's Solution and resuspended to 0.2×10^6 cells/mL in modified Ringer's solution containing 10 mM calcium.
Compounds are dissolved to a concentration of 10 millimolar with DMSO. Compound plates are created by dispensing compounds into 384 well black wall clear bottom plates (Greiner 781091). Positive and negative controls are included on each plate. Typically, different amounts of each compound are tested ranging from 100 nanoMoles (20 micromolar final concentration) decreasing in half-log steps to 31 picoMoles (6 nanomolar final concentration). Each concentration is typically tested in triplicate.
50 microliters of dye-loaded cells are dispensed into each well of the compound assay plate created above. The fluorescence in each well is then determined with an excitation wavelength of 480 nm and an emission wavelength of 540 nm using either a Molecular Devices SpectraMax multimode plate reader or a Hamamatsu FDSS/uCell plate imager.
The resulting fluorescence for each well is exported as an ascii file and loaded into our LIMS for analysis. The percent activity of each compound at each concentration is determined by comparison to the positive and negative control wells included in each plate.
Assays for TRPML2 and TRPML3 were performed as above for TRPML1, by substituting the appropriate TRPML2 or TRPML3 subtype for the TRPML1.
EC50 values were calculated using a non-linear regression of Prism. In the table, “A” indicates an EC50 of less than 100 nM, “B” indicates an EC50 range from 100 nM to 500 nM; “C” indicates an EC50 range from 500 nM to 2 μM; and “D” indicates an EC50 greater than 2 μM.

TRPML3 = biological target: T2, TRPML3 (Homo sapiens, UniProt Q8TDD5); assay: Fluorescent TRPML3 assay (as for TRPML1)
T2 construct: expressed in transfected cells
T2 sequence (Q8TDD5 1-553): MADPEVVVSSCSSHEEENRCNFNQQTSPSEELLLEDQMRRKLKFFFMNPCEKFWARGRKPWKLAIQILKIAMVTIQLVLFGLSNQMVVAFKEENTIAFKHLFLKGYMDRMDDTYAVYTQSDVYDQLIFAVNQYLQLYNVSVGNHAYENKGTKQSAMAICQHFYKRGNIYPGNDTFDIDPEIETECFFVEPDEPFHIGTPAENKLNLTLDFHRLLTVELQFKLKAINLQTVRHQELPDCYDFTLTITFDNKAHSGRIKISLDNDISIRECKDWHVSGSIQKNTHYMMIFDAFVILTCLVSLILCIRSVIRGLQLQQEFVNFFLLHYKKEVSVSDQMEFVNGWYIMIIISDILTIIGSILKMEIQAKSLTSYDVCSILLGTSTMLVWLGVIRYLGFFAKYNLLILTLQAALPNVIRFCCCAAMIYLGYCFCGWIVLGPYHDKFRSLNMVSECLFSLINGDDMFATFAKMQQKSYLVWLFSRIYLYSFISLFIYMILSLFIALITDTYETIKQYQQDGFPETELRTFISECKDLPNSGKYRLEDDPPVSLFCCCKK
Outline: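 HEK-293 Trex cells with tet-inducible (0.5 ug/mL doxycycline, overnight) surface-targeted mutant channel, Fluo4-AM loaded, suspended in Ringer's with 10 mM calcium. Compounds tested 20 µM to 6 nM final, half-log steps, triplicate; fluorescence at ex 480/em 540 nm. EC50 by non-linear regression of percent activity versus plate controls.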

human TRPML1, sequence (Q9GZU1 whole entry L15A/L16A/L577A/L578A, form open): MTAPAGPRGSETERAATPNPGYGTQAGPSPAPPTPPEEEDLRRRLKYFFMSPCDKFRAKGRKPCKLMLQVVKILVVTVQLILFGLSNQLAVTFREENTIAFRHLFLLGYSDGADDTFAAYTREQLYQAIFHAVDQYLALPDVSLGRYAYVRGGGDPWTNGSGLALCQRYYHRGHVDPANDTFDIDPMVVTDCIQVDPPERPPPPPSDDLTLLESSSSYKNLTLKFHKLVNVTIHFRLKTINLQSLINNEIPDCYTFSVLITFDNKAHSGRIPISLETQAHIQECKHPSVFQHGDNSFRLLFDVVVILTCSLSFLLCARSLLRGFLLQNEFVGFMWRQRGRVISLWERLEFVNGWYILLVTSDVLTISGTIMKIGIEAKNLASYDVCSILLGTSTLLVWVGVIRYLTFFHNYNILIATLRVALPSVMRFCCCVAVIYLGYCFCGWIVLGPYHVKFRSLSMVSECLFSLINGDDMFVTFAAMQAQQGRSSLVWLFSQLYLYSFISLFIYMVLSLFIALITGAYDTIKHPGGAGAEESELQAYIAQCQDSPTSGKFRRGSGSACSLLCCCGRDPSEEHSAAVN

For `C[C@@H]1CN(c2ncnc3c2c(C2CCC2)cn3-c2cccc(Cl)c2)[C@@H](C)CN1C(=O)C(C)(C)C` [Compound 253, 1-((2R,5S)-4-(7-(3-chlorophenyl)-5-cyclobutyl-7H-pyrrolo[2,3-d]pyrimidin-4-yl)-2,5-dimethylpiperazin-1-yl)-2,2-dimethylpropan-1-one], the EC50 (human TRPML1; Table 3, compounds 201-283) was < 100 nM, the EC50 (TRPML2; Table 3, compounds 201-283) was 500 to 2000 nM and the EC50 (TRPML3; Table 3, compounds 201-283) was 100 to 500 nM.

`COC(C)(C)C(=O)N1CCN(c2ncnc3c2c(C2CC2)cn3-c2cc(C#N)ccn2)C[C@H]1C` [Compound 265, (R)-2-(5-cyclopropyl-4-(4-(2-methoxy-2-methylpropanoyl)-3-methylpiperazin-1-yl)-7H-pyrrolo [2,3-d]pyrimidin-7-yl)isonicotinonitrile] was tested, and the EC50 (human TRPML1; Table 3, compounds 201-283) was < 100 nM, the EC50 (TRPML2; Table 3, compounds 201-283) was 100 to 500 nM and the EC50 (TRPML3; Table 3, compounds 201-283) was < 100 nM.

With `C[C@@H]1CN(c2ncnc3c2c(C2CCC2)cn3-c2cc(C#N)ccn2)[C@@H](C)CN1C(=O)CC(C)(C)C(F)(F)F` [Compound 239, 2-(5-cyclobutyl-4-((2S,5R)-2,5-dimethyl-4-(4,4,4-trifluoro-3,3-dimethylbutanoyl)piperazin-1-yl)-7H-pyrrolo[2,3-d]pyrimidin-7-yl)isonicotinonitrile] the EC50 (human TRPML1; Table 3, compounds 201-283) was < 100 nM, the EC50 (TRPML2; Table 3, compounds 201-283) was 500 to 2000 nM and the EC50 (TRPML3; Table 3, compounds 201-283) was < 100 nM.

With `C[C@H]1CN(C(=O)C2(F)CC2)CCN1c1ncnc2c1c(-c1ccccc1F)cn2-c1cc(C#N)ccn1` [Compound 115, (S)-2-(4-(4-(1-fluorocyclopropane-1-carbonyl)-2-methylpiperazin-1-yl)-5-(2-fluorophenyl)-7H-pyrrolo[2,3-d]pyrimidin-7-yl)isonicotinonitrile] the EC50 (human TRPML1; Table 3, compounds 101-177) was < 100 nM, the EC50 (TRPML2; Table 3, compounds 101-177) was < 100 nM and the EC50 (TRPML3; Table 3, compounds 101-177) was < 100 nM.

`CC(C)C(=O)N1CCN(c2ncnc3c2c(-c2ccccc2F)cn3-c2cc(C#N)ccn2)C(C)(C)C1` [Compound 149, 2-(5-(2-fluorophenyl)-4-(4-isobutyryl-2,2-dimethylpiperazin-1-yl)-7H-pyrrolo[2,3-d]pyrimidin-7-yl)isonicotinonitrile] was tested, and the EC50 (human TRPML1; Table 3, compounds 101-177) was < 100 nM, the EC50 (TRPML2; Table 3, compounds 101-177) was < 100 nM and the EC50 (TRPML3; Table 3, compounds 101-177) was < 100 nM.

With `C[C@H]1CN(C(=O)C(C)(C)C)CCN1c1ncnc2c1c(-c1ccccc1F)cn2-c1cc(C#N)ccn1` [Compound 103, (S)-2-(5-(2-fluorophenyl)-4-(2-methyl-4-pivaloylpiperazin-1-yl)-7H-pyrrolo[2,3-d]pyrimidin-7-yl)isonicotinonitrile] the EC50 (human TRPML1; Table 3, compounds 101-177) was < 100 nM, the EC50 (TRPML2; Table 3, compounds 101-177) was < 100 nM and the EC50 (TRPML3; Table 3, compounds 101-177) was < 100 nM.

With `C[C@@H]1CN(c2ncnc3c2c(-c2ccccc2F)cn3-c2cc(C#N)ccn2)[C@@H](C)CN1C(=O)C(C)(C)O` [Compound 158, 2-(5-(2-fluorophenyl)-4-((2S,5R)-4-(2-hydroxy-2-methylpropanoyl)-2,5-dimethylpiperazin-1-yl)-7H-pyrrolo[2,3-d]pyrimidin-7-yl)isonicotinonitrile] the EC50 (human TRPML1; Table 3, compounds 101-177) was < 100 nM, the EC50 (TRPML2; Table 3, compounds 101-177) was 100 to 500 nM and the EC50 (TRPML3; Table 3, compounds 101-177) was < 100 nM.

With `C[C@H]1CN(C(=O)C(C)(C)C)CCN1c1ncnc2c1c(-c1ccccn1)cn2-c1cc(C#N)ccn1` [Compound 117, (S)-2-(4-(2-methyl-4-pivaloylpiperazin-1-yl)-5-(pyridin-2-yl)-7H-pyrrolo[2,3-d]pyrimidin-7-yl)isonicotinonitrile] the EC50 (human TRPML1; Table 3, compounds 101-177) was < 100 nM, the EC50 (TRPML2; Table 3, compounds 101-177) was 500 to 2000 nM and the EC50 (TRPML3; Table 3, compounds 101-177) was 100 to 500 nM.

`C[C@@H]1CN(c2ncnc3c2c(C2CCC2)cn3-c2cccc(C(F)(F)F)c2)[C@@H](C)CN1C(=O)C1(F)CC1` [Compound 260, ((2R,5S)-4-(5-cyclobutyl-7-(3-(trifluoromethyl)phenyl)-7H-pyrrolo[2,3-d]pyrimidin-4-yl)-2,5-dimethylpiperazin-1-yl)(1-fluorocyclopropyl)methanone] was tested, and the EC50 (human TRPML1; Table 3, compounds 201-283) was 100 to 500 nM, the EC50 (TRPML2; Table 3, compounds 201-283) was > 2000 nM and the EC50 (TRPML3; Table 3, compounds 201-283) was 500 to 2000 nM.

With `C[C@@H]1CN(c2ncnc3c2c(C2CCC2)cn3-c2cc(C#N)ccn2)[C@@H](C)CN1C(=O)C(C)(C)C(F)(F)F` [Compound 240, 2-(5-cyclobutyl-4-((2S,5R)-2,5-dimethyl-4-(3,3,3-trifluoro-2,2-dimethylpropanoyl)piperazin-1-yl)-7H-pyrrolo[2,3-d]pyrimidin-7-yl)isonicotinonitrile] the EC50 (human TRPML1; Table 3, compounds 201-283) was 100 to 500 nM, the EC50 (TRPML2; Table 3, compounds 201-283) was 100 to 500 nM and the EC50 (TRPML3; Table 3, compounds 201-283) was < 100 nM.

With `C[C@H]1CN(C(=O)C2(F)CC2)CCN1c1ncnc2c1c(N1CCCC1)cn2-c1cccc(Cl)c1` [Compound 278, (S)-(4-(7-(3-chlorophenyl)-5-(pyrrolidin-1-yl)-7H-pyrrolo[2,3-d]pyrimidin-4-yl)-3-methylpiperazin-1-yl)(1-fluorocyclopropyl)methanone] the EC50 (human TRPML1; Table 3, compounds 201-283) was < 100 nM, the EC50 (TRPML2; Table 3, compounds 201-283) was 100 to 500 nM and the EC50 (TRPML3; Table 3, compounds 201-283) was 100 to 500 nM.

With `[2H]C([2H])([2H])[C@@H]1CN(c2ncnc3c2c(-c2ccccc2F)cn3-c2cc(C#N)ccn2)[C@@H](C)CN1C(=O)C(C)C` (single isomer, unassigned) [Compound 281] the EC50 (TRPML2; Table 3, compounds 201-283) was 500 to 2000 nM and the EC50 (TRPML3; Table 3, compounds 201-283) was 100 to 500 nM.

With `[2H]C([2H])([2H])C(C(=O)N1C[C@H](C)N(c2ncnc3c2c(-c2ccccc2F)cn3-c2cc(C#N)ccn2)C[C@H]1C)C([2H])([2H])[2H]` (single isomer, unassigned) [Compound 234] the EC50 (TRPML2; Table 3, compounds 201-283) was 100 to 500 nM and the EC50 (TRPML3; Table 3, compounds 201-283) was < 100 nM.

`[2H]C([2H])([2H])C([2H])(C(=O)N1C[C@H](C)N(c2ncnc3c2c(-c2ccccc2F)cn3-c2cc(C#N)ccn2)C[C@H]1C)C([2H])([2H])[2H]` (single isomer, unassigned) [Compound 233] was tested, and the EC50 (TRPML2; Table 3, compounds 201-283) was < 100 nM and the EC50 (TRPML3; Table 3, compounds 201-283) was < 100 nM.

Work on `COC(C)(C)C(=O)N1CCN(c2ncnc3c2c(C(F)(F)F)cn3-c2cc(C#N)ccn2)[C@@H](C)C1` [Compound 210, (S)-2-(4-(4-(2-methoxy-2-methylpropanoyl)-2-methylpiperazin-1-yl)-5-(trifluoromethyl)-7H-pyrrolo[2,3-d]pyrimidin-7-yl)isonicotinonitrile] yielded an EC50 (human TRPML1; Table 3, compounds 201-283) of 100 to 500 nM and an EC50 (TRPML3; Table 3, compounds 201-283) of 500 to 2000 nM.
